Measured values as given in US20110195505A1, “BACTERIAL STRAINS FOR BUTANOL PRODUCTION” (priority 2009, published 2011).
Several values for one entry are separate records, joined by “and”; a condition that tells them apart may be missing. Equal values may be shown once.

What was measured:
[1] = tested on: L. plantarum strain PN0512; assay: Growth yield (OD600) in isobutanol, stearic acid fed and unfed cultures; type: cell-based, Lactobacillus plantarum; conditions: no fatty acid fed, 25 hours, 30° C.
Experimental: For growth yield experiments, 5 ml of medium with test fatty acids (10-500 mg per liter) and varying concentrations of isobutanol in 15 ml screw cap tubes was inoculated with 12.5 μl of the working stock giving an initial OD600 of 0.012. The caps were tightly sealed and incubated at 30° C. on a roller drum for 20 to 26 hours, at which time 1.0 ml was removed and OD600 was measured with a blank of medium amended with the fatty acid. All solvent concentrations are reported as % (w/v).
Growth of L. plantarum cultures in the media described in General Methods and containing varying concentrations of isobutanol was measured and compared with the cultures fed (supplemented with) stearic acid at a final concentration of 50 mg per liter of medium. Cultures were prepared as described in General Methods.

[2] = tested on: BP63 (ΔfabZ1); assay: Growth of BP63 in the presence of isobutanol and oleic acid; type: cell-based, L. plantarum; conditions: for Growth (OD600) of BP63 (ΔfabZ1): 18 hours, 30° C.
Experimental: The purpose of these experiments was to see if the requirement for oleic acid changed in the presence of isobutanol. Semi-synthetic LAB medium, pH6, supplemented with 75 μg/mL uracil, 2.5 μg/mL hematin was used along with a series of varying concentrations of isobutanol and oleic acid. Oleic was added to the final concentrations of 0, 10, 20, 30, 40, and 50 mg/L. Isobutanol was added to the final concentrations of 0, 1.0, 1.5, 2.0, 2.5, and 3% (w/v). 2.5 mL of media was inoculated with […] of the BP63 working stock. The cultures were incubated at 30° C. without shaking for 18 hours. At 18 hours the OD600 was measured.

[3] = tested on: BP63 (ΔfabZ1); assay: Shake flask growth rate of BP63 with isobutanol and oleic acid; type: cell-based, L. plantarum
Experimental: Four sets of conditions were prepared. For the first set, 20 mg/l oleic acid was added and isobutanol was added to 0, 1, 1.5, 2 and 2.5% final concentration. In the second set of flasks, 30 mg/L of oleic acid was added to the medium and the following final isobutanol concentrations were used: 0, 1, 1.5, 2, 2.5, and 3% w/v. The third and fourth set of the shake flask cultures were done at oleic acid concentrations of 50 and 55 mg/L. These flasks were placed in a shaking water bath at 30° C. at 80 RPM. Samples were taken at 2, 3, 4, and 5 hrs and the OD600 was measured.

[4] = tested on: BP15 (fabZ1^+); assay: Growth yield (OD600) with oleic acid, parental strain; type: cell-based, L. plantarum; conditions: 24 hours, 30° C.
Experimental: (§1) Strain BP63 (ΔfabZ1, described in Example 4) and the parental strain BP15 (fabZ1^+, described in Example 3) were grown in semi-synthetic LAB medium, pH6, with 75 μg/ml uracil and 2.5 μg/mL hematin in the presence and absence of an unsaturated fatty acid, oleic acid. Cultures were prepared as described in General Methods.

[5] = tested on: BP63 (ΔfabZ1); assay: Growth yield (OD600) with oleic acid, fabZ1 deletion strain; type: cell-based, L. plantarum; conditions: for OD600 BP63 (ΔfabZ1): 24 hours, 30° C.
Experimental: as §1

[6] = tested on: BP63 (L. plantarum PN0512ΔpyrFΔfabZ1); assay: Fatty acid supplements supporting growth of the fabZ1 mutant; type: cell-based; conditions: fatty acid supplied at 80 mg/L; overnight incubation, OD600
Experimental: With 100 or 200 mg/liter of oleic acid the growth of BP63 was equivalent to that of the fabZ1^+ control strain, BP15. […] Thus, we conclude that fabZ1 in L. plantarum has the same function as FabN in E. faecalis (Wang, H. and Cronan, J. E. 2004. Functional replacement of the FabA and FabB proteins of Escherichia coli fatty acid synthesis by Enterococcus faecalis FabZ and FabF homologs. J. Biol. Chem. 279, 34489-95). To further test the range of fatty acid supplements that support growth of the fabZ1 mutant, several other fatty acids were supplied at 80 mg/L to the semi-synthetic LAB medium as described above. BP63 and the parental control BP15 were inoculated from the working stocks. After overnight incubation, the OD600 was measured. The growth of BP15 was not inhibited by any of the fatty acids tested. The Table 9 below summarizes the results for the fabZ1 mutant strain, BP63.

With CC(C)CO [Isobutanol, isobutanol] the OD600 unfed control ([1]; 2.3 % w/v isobutanol) was 0.727, the OD600 unfed control ([1]; 2.5 % w/v isobutanol) was 0.341 and the OD600 unfed control ([1]; 2.7 % w/v isobutanol) was 0.131. The OD600 unfed control ([1]; 2.9 % w/v isobutanol) was 0.051, the “Growth (OD600) of BP63 (ΔfabZ1)” value ([2]; oleic acid 0 mg/liter, iso-butanol 1%) was 0.0383 and the “Growth (OD600) of BP63 (ΔfabZ1)” value ([2]; oleic acid 0 mg/liter, iso-butanol 1.5%) was 0.0385. For the same compound, the “Growth (OD600) of BP63 (ΔfabZ1)” value ([2]; oleic acid 0 mg/liter, iso-butanol 2%) was 0.0402, the “Growth (OD600) of BP63 (ΔfabZ1)” value ([2]; oleic acid 0 mg/liter, iso-butanol 2.5%) was 0.038 and the “Growth (OD600) of BP63 (ΔfabZ1)” value ([2]; oleic acid 0 mg/liter, iso-butanol 3%) was 0.0351. For the same compound, the “Growth (OD600) of BP63 (ΔfabZ1)” value ([2]; oleic acid 10 mg/liter, iso-butanol 1%) was 0.0829, the “Growth (OD600) of BP63 (ΔfabZ1)” value ([2]; oleic acid 10 mg/liter, iso-butanol 1.5%) was 0.0601 and the “Growth (OD600) of BP63 (ΔfabZ1)” value ([2]; oleic acid 10 mg/liter, iso-butanol 2%) was 0.0701. The “Growth (OD600) of BP63 (ΔfabZ1)” value ([2]; oleic acid 10 mg/liter, iso-butanol 2.5%) was 0.0684, the “Growth (OD600) of BP63 (ΔfabZ1)” value ([2]; oleic acid 10 mg/liter, iso-butanol 3%) was 0.0397 and the “Growth (OD600) of BP63 (ΔfabZ1)” value ([2]; oleic acid 20 mg/liter, iso-butanol 1%) was 0.2291. The “Growth (OD600) of BP63 (ΔfabZ1)” value ([2]; oleic acid 20 mg/liter, iso-butanol 1.5%) was 0.2375, the “Growth (OD600) of BP63 (ΔfabZ1)” value ([2]; oleic acid 20 mg/liter, iso-butanol 2%) was 0.068 and the “Growth (OD600) of BP63 (ΔfabZ1)” value ([2]; oleic acid 20 mg/liter, iso-butanol 2.5%) was 0.0594. The “Growth (OD600) of BP63 (ΔfabZ1)” value ([2]; oleic acid 20 mg/liter, iso-butanol 3%) was 0.0399, the “Growth (OD600) of BP63 (ΔfabZ1)” value ([2]; oleic acid 30 mg/liter, iso-butanol 1%, listed as iso-butanol) was 0.7686 and the “Growth (OD600) of BP63 (ΔfabZ1)” value ([2]; oleic acid 30 mg/liter, iso-butanol 1%, listed as isobutanol) was 0.769. For the same compound, the “Growth (OD600) of BP63 (ΔfabZ1)” value ([2]; oleic acid 30 mg/liter, iso-butanol 1.5%, listed as iso-butanol) was 0.7137, the “Growth (OD600) of BP63 (ΔfabZ1)” value ([2]; oleic acid 30 mg/liter, iso-butanol 1.5%, listed as isobutanol) was 0.714 and the “Growth (OD600) of BP63 (ΔfabZ1)” value ([2]; oleic acid 30 mg/liter, iso-butanol 2%) was 0.402. For the same compound, the “Growth (OD600) of BP63 (ΔfabZ1)” value ([2]; oleic acid 30 mg/liter, iso-butanol 2.5%) was 0.1606, the “Growth (OD600) of BP63 (ΔfabZ1)” value ([2]; oleic acid 30 mg/liter, iso-butanol 3%) was 0.0995 and the “Growth (OD600) of BP63 (ΔfabZ1)” value ([2]; oleic acid 40 mg/liter, iso-butanol 1%) was 1.2315. The “Growth (OD600) of BP63 (ΔfabZ1)” value ([2]; oleic acid 40 mg/liter, iso-butanol 1.5%) was 0.8852, the “Growth (OD600) of BP63 (ΔfabZ1)” value ([2]; oleic acid 40 mg/liter, iso-butanol 2%) was 0.8012 and the “Growth (OD600) of BP63 (ΔfabZ1)” value ([2]; oleic acid 40 mg/liter, iso-butanol 2.5%) was 0.1793. The “Growth (OD600) of BP63 (ΔfabZ1)” value ([2]; oleic acid 40 mg/liter, iso-butanol 3%) was 0.1358, the “Growth (OD600) of BP63 (ΔfabZ1)” value ([2]; oleic acid 50 mg/liter, iso-butanol 1%) was 1.2567 and the “Growth (OD600) of BP63 (ΔfabZ1)” value ([2]; oleic acid 50 mg/liter, iso-butanol 1.5%) was 1.257. For the same compound, the “Growth (OD600) of BP63 (ΔfabZ1)” value ([2]; oleic acid 50 mg/liter, iso-butanol 2%) was 0.5464, the “Growth (OD600) of BP63 (ΔfabZ1)” value ([2]; oleic acid 50 mg/liter, iso-butanol 2.5%) was 0.1654 and the “Growth (OD600) of BP63 (ΔfabZ1)” value ([2]; oleic acid 50 mg/liter, iso-butanol 3%) was 0.1185. The “effect of isobutanol on growth of the fabZ1 mutant” value ([2]; oleic acid supplied at sub-optimal levels) was “enhanced the growth” and the “effect of isobutanol on growth rate of fabZ1 mutant strain BP63” value ([3]; shake flask, suboptimal concentrations of oleic acid, FIG. 1) was “stimulated growth”.
CCCCCCCC/C=C\CCCCCCCC(=O)O [Oleic acid, oleic acid] was tested, and the “OD600 BP15 (fabZ1^+)” value ([4]; oleic acid 1.5 mg/liter) was 0.9449, the “OD600 BP15 (fabZ1^+)” value ([4]; oleic acid 3 mg/liter) was 0.8375 and the “OD600 BP15 (fabZ1^+)” value ([4]; oleic acid 6 mg/liter) was 0.9459. For the same compound, the “OD600 BP15 (fabZ1^+)” value ([4]; oleic acid 12 mg/liter) was 0.9681, the “OD600 BP15 (fabZ1^+)” value ([4]; oleic acid 25 mg/liter) was 1.0069 and the “OD600 BP15 (fabZ1^+)” value ([4]; oleic acid 100 mg/liter) was 1.0915. The “OD600 BP15 (fabZ1^+)” value ([4]; oleic acid 200 mg/liter) was 1.3187, the “growth of BP63 compared with fabZ1^+ control strain BP15” value ([5]; 100 or 200 mg/liter of oleic acid) was “equivalent” and the “growth of BP63” value ([5]; low concentrations of oleic acid up to 12 mg/liter) was “essentially no growth”. The “OD600 BP63 (ΔfabZ1)” value ([5]; oleic acid 1.5 mg/liter) was 0.0091, the “OD600 BP63 (ΔfabZ1)” value ([5]; oleic acid 3 mg/liter) was 0.0081 and the “OD600 BP63 (ΔfabZ1)” value ([5]; oleic acid 6 mg/liter) was 0.0084. For the same compound, the “OD600 BP63 (ΔfabZ1)” value ([5]; oleic acid 12 mg/liter) was 0.0234, the “OD600 BP63 (ΔfabZ1)” value ([5]; oleic acid 25 mg/liter) was 0.6943 and the “OD600 BP63 (ΔfabZ1)” value ([5]; oleic acid 100 mg/liter) was 1.1452. The “OD600 BP63 (ΔfabZ1)” value ([5]; oleic acid 200 mg/liter) was 1.3725, the “Supports growth of BP63” value [6] was “YES” and the “Growth (OD600) of BP63 (ΔfabZ1)” value ([2]; oleic acid 10 mg/liter, iso-butanol 0%) was 0.0835. The “Growth (OD600) of BP63 (ΔfabZ1)” value ([2]; oleic acid 20 mg/liter, iso-butanol 0%) was 0.1046, the “Growth (OD600) of BP63 (ΔfabZ1)” value ([2]; oleic acid 30 mg/liter, iso-butanol 0%) was 0.153 and 0.1526 and the “Growth (OD600) of BP63 (ΔfabZ1)” value ([2]; oleic acid 40 mg/liter, iso-butanol 0%) was 0.2976. The “Growth (OD600) of BP63 (ΔfabZ1)” value ([2]; oleic acid 50 mg/liter, iso-butanol 0%) was 1.181 and the “growth rate of BP63 compared with parental strain BP15” value ([3]; 55 mg/liter oleic acid, all concentrations of isobutanol) was “essentially identical”.
